Here are results for 12 compounds from EP4781984A1 (Beyang Therapeutics Co., Ltd., priority 2023, dated 2025).

One data set addresses T1, VEGFR2 (Homo sapiens, UniProt P35968).
T1 construct: purchased Carna 08-191
The data set is described as follows: Kinase inhibitory activity, Mobility Shift Assay (VEGFR2). It is filed as biochemical. As for the experimental part: (§1) Assay for Inhibitory Activity of Compounds Against VEGFR and EGFR Kinases
(§2) This assay directly monitors the inhibitory activity of compounds on kinase phosphorylation by measuring non-phosphorylated and phosphorylated substrates in the kinase reaction using Mobility Shift Assays/IMAP™ analysis. Table 2. Reagents and Instruments
(§3) Kinase and DTT were added to 1X kinase buffer to form a 2.5X kinase solution; 10 µL of the 2.5X kinase solution was transferred to a 384-well reaction plate, and 1X kinase buffer was added to the negative control wells. The plate was incubated at room temperature for 10 minutes; FAM-labeled peptide, MgCl2, ATP, and other reagents were added to 1X kinase buffer to form a 2.5X substrate solution; 10 µL of the above 2.5X substrate solution was transferred to the 384-well reaction plate; the plate was incubated at 28°C for varying times, and then 25 µL of stop solution was added to the 384-well reaction plate to terminate the reaction. Conversion rate data were read on a CaliperEZ Reader II. […] IC50 values were fitted using XLFit excel add-in version 5.4.0.8. Y = Bottom + (Top−Bottom)/(1 + […]) [formula]
(§4) X is the log value of compound concentration, Y is the inhibition rate (% inhibition).

Another data set has as its target T2, EGFR (Homo sapiens, UniProt P00533).
T2 construct: purchased Carna 08-115
The data set is described as follows: Kinase inhibitory activity, Mobility Shift Assay (EGFR). It is filed as biochemical. The method, boiled down:
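Each kinase pre-incubated 10 min at room temperature, then FAM-labelled peptide with MgCl2 and ATP added; reaction at 28 °C for kinase-dependent times before stop. Substrate conversion read by mobility shift; IC50 from a four-parameter fit of % inhibition against log concentration.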

The next data set has as its target T3, VEGFR1 (Homo sapiens, UniProt P17948).
T3 construct: purchased Invitrogen PR6731B
As to the kind of experiment: Kinase inhibitory activity, Mobility Shift Assay (VEGFR1). It is filed as biochemical. The procedure: as §1, §2, §3, §4

The target of a further data set is T4, VEGFR3 (Homo sapiens, UniProt P35916).
T4 construct: purchased Invitrogen PV4129
As to the kind of experiment: Kinase inhibitory activity, Mobility Shift Assay (VEGFR3). It is filed as biochemical. The procedure: as §1, §2, §3, §4

Data set [1] can be described thus: Thermodynamic solubility test. It is filed as physicochemical. The settings on record: buffer solution, aqueous buffer, thermodynamic from solid; thermodynamic solubility, room temperature, 8 hours shaking; buffers pH 2.0, 6.5, 7.4 used, pH of the tabulated value not given. The method, boiled down:
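Samples sonicated 10 min, shaken 8 h at room temperature, re-sonicated and centrifuged at 13000 rpm for 15 min. Supernatant recentrifuged and analysed by LC-MS, with concentrations quantified against a 3–5 point calibration curve.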

The test system of a further data set is melanin. The data set is described as follows: Compound binding to melanin. Format: in vitro ADME. The settings on record: cuttlefish (Sepia officinalis), melanin suspension (1 mg/mL), percentage of free drug (not bound to melanin), 2 µM compound, melanin 1 mg/mL in PBS pH 7.4, 37°C. The method, boiled down:
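Compound at 2 µM final incubated with 1 mg/mL Sepia melanin in PBS pH 7.4, 37°C, 2 hours with shaking; blank in PBS with 0.1% BSA. Supernatant concentration by LC-MS/MS. Fb = 100 − (Ctest/Ccontrol) × 100%.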

In data set [2] the target is T5, VEGFR2 autophosphorylation (pVEGFR2) in HUVEC cells (Homo sapiens, UniProt P35968).
T5 construct: endogenous in cells; host or cells: HUVEC
As to the kind of experiment: Inhibition of VEGF-induced VEGFR2 phosphorylation in HUVEC cells (ELISA). Format: cell-based. The settings on record: 50 ng/mL human VEGF, compound 1 hour. The source says: Assay for Compound Inhibition of VEGFR2 Phosphorylation in HUVEC Cells
VEGF is a potent growth factor that promotes angiogenesis and vascular permeability. Vascular endothelial growth factor receptor 2 (VEGFR2) is the primary receptor for VEGF-induced endothelial cell signaling. Upon ligand binding, VEGFR2 undergoes autophosphorylation and is activated. The primary function from VEGFR2 signaling is to induce blood vessel formation during development and after tissue injury, and to bypass blocked vessels. Pathologically, VEGF and VEGFR2 are involved in tumor angiogenesis and vascular leakage. They are considered major players in many different cancers and ocular diseases accompanied by pathological neovascularization. This assay uses ELISA to measure the compound's ability to inhibit VEGF-induced VEGFR2 autophosphorylation (pVEGFR2) in HUVEC cells. Table 7. Reagents and Instruments
Before cell seeding, cells reached 60%-80% confluency in cell culture flasks. The cell suspension was diluted with pre-warmed complete medium to 4.5×10^6 cells/mL. 80 microliters of cell suspension was added to all wells of a 96-well cell plate (Corning-3599); incubated overnight at 37°C and 5% CO2. Compound powder was dissolved in DMSO to 10 mM and stored in a nitrogen cabinet. Compound dilution master plate: In a 96-well V-bottom plate (Axygen- WIPP02280), reference compound Ponatinib or test compound concentrations were added, starting from 5 mM (5 microliters of 10 mM compound solution plus 5 microliters DMSO) with 3-fold serial dilutions for a total of 8 concentration points. […] 20 microliters of diluted compound was transferred from the intermediate plate to the cell plate. The cell plate was then incubated at 37°C and 5% CO2 for 1 hour. […] It was gently shaken for 30 seconds, and the absorbance was measured within 30 minutes using a SpectraMax® 340 PC 384 Absorbance Microplate Reader, reading the optical density value at 450 nm. […]
All other values are expressed as a percentage of these controls (inhibition rate). […]

A short description of data set [3]: Ophthalmic formulations based on polyethylene glycol series vehicles: composition and state (Example 7). To be noted: Table 15: 10 mg/mL; Polyethylene glycol 400 10, Hydroxypropyl-β-cyclodextrin 10, Gellan Gum Gelrite 0.3, Poloxamer 188 1, Tris solution and Citric acid. It is filed as physicochemical. The method, boiled down: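 Compound was dissolved, or nearly dissolved, in PEG 400 by sonication (heated to 50 °C if needed), then mixed into Tris-HCl buffer containing hydroxypropyl-β-cyclodextrin, poloxamer 188 and gellan gum or another viscosity modifier. Physical state was scored visually as solution, near-clear solution, suspension or gel.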

The structures appear in SMILES notation. Values after ≈ are worked out from the molar mass of the structure shown.

T4 sequence (P35916 25-1363): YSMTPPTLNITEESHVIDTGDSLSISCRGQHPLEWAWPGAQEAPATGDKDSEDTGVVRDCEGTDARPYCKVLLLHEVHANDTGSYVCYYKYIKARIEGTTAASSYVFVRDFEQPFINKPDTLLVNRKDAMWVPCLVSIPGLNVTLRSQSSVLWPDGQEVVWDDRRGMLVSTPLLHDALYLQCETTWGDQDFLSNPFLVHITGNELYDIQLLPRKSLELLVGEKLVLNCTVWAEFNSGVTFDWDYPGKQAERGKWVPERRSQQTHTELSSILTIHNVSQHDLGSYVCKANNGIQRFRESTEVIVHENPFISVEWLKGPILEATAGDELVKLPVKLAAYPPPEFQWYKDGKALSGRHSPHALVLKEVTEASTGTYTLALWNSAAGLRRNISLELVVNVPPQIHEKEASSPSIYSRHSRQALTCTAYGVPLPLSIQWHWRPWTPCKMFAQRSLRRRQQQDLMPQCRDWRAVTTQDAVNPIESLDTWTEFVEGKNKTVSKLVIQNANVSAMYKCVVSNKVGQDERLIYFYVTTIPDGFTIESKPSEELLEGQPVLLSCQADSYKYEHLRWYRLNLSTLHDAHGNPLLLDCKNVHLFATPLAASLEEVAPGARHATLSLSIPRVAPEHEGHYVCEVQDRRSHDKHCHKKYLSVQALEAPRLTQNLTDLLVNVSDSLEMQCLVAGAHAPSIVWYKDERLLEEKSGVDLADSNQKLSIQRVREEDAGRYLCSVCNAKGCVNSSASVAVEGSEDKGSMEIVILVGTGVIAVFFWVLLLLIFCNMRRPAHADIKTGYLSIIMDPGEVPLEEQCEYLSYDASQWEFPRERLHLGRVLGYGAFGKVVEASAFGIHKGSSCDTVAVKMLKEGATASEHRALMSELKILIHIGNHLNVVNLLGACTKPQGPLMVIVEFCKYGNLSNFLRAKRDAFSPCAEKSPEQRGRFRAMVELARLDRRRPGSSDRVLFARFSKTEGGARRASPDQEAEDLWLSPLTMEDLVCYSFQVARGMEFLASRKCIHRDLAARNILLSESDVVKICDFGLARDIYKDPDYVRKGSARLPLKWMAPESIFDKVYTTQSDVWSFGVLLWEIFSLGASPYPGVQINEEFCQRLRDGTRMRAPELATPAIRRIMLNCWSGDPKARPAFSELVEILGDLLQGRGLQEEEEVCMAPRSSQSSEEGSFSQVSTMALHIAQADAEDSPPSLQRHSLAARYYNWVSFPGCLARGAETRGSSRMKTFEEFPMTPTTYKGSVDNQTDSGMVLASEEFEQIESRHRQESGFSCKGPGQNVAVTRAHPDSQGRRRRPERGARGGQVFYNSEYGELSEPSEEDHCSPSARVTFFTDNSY
T3 sequence (P17948 27-1338): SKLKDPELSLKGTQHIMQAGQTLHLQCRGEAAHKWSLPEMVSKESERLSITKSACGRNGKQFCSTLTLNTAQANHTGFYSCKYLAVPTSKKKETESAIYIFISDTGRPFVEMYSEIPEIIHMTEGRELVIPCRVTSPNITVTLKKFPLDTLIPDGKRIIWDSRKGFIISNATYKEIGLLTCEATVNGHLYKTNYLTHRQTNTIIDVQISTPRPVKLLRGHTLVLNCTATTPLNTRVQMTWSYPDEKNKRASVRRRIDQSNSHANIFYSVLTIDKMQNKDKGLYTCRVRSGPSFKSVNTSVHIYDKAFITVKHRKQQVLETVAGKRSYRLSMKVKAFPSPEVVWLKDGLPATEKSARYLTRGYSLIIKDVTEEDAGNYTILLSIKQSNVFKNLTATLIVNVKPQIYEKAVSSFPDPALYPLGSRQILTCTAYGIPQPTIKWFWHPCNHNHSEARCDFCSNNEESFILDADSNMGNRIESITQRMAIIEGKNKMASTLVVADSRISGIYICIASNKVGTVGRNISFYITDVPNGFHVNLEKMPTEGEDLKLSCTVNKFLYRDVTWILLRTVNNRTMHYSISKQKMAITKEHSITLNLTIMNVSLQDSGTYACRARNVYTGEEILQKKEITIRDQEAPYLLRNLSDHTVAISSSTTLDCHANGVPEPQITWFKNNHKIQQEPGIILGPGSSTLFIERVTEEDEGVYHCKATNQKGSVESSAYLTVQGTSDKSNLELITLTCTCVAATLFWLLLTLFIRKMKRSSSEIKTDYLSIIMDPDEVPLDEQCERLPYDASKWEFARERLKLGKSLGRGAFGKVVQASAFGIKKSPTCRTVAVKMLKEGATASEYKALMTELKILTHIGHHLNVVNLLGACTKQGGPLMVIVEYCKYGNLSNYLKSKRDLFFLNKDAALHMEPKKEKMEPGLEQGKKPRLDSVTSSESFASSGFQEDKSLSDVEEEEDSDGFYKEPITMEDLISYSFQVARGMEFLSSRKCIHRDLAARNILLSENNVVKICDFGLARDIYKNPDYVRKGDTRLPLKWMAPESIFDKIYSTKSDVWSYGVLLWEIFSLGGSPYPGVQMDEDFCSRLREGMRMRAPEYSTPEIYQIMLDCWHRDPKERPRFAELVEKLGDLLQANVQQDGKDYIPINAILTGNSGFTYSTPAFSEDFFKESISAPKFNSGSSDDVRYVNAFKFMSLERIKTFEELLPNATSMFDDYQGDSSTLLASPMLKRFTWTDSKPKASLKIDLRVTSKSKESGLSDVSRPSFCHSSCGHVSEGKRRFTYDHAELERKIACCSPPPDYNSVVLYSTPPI
T2 sequence (P00533 25-1210): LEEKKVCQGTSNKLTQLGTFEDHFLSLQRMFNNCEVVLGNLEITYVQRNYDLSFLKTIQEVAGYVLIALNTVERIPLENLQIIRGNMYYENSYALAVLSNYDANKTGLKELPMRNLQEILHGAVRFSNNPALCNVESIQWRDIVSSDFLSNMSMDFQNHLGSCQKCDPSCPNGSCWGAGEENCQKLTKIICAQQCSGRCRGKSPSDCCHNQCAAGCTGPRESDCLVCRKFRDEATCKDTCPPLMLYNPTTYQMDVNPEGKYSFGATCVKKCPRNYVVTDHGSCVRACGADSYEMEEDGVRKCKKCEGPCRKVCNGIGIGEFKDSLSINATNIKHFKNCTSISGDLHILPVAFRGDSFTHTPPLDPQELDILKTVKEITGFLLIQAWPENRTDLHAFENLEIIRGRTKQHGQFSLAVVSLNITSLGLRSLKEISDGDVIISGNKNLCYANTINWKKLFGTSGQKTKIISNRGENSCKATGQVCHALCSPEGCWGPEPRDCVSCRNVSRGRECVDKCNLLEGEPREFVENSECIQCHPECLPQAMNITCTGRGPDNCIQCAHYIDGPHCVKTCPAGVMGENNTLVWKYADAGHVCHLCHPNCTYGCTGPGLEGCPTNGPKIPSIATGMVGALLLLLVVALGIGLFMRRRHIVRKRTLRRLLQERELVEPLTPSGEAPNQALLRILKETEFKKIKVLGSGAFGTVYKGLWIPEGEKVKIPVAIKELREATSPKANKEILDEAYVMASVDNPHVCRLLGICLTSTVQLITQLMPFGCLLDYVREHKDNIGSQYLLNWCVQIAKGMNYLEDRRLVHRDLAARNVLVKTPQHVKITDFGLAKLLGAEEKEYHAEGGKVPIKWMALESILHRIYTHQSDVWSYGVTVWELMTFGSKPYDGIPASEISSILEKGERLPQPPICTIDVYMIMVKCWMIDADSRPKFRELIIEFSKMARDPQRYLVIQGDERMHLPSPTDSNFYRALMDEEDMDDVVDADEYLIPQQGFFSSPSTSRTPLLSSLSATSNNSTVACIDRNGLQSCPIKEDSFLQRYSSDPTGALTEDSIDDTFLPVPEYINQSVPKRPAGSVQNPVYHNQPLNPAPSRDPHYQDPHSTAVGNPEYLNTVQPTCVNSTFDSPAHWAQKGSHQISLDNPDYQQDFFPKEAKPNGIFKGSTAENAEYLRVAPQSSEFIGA

In the case of `CNC(=O)c1ccccc1Sc1ccc2c(/C=C/c3ccc(OCC4CCNC4)cn3)n[nH]c2c1` (centres unmarked) [Compound I-7], the IC50 on VEGFR2 is 1 to 10 nM; on EGFR, 6000 to 60000 nM; at VEGFR1, no more than 1 nM; at VEGFR3, 1 to 10 nM. The same compound registered a solubility at 8 h in data set [1] of 294 µg/mL (≈ 605 µM). The compound also had a fraction unbound at 2 h, 2 µM with melanin greater than 0.05.
For the compound `CNC(=O)c1ccccc1Sc1ccc2c(/C=C/c3ccccn3)ncn2c1` [Compound I-26, N-methyl-2-({1-[(E)-2-(pyridin-2-yl)ethenyl]imidazo[1,5-a]pyridin-6-yl}thio)benzamide], the IC50 on VEGFR2 is greater than 100 nM; at EGFR, greater than 60000 nM; on VEGFR1 it was greater than 100 nM; on VEGFR3 it was greater than 100 nM. Moreover, the concentration in solution in data set [1] (solubility at 8 h) came to 142 µg/mL (≈ 367 µM). Besides, the fraction unbound at 2 h, 2 µM in the data set with melanin is 0.01 to 0.05.
For `CCNC(=O)c1cc(F)ccc1Sc1ccc2c(/C=C/c3ccc(CN(CC)CC)cn3)n[nH]c2c1` [Compound I-88], the results for the IC50 (on VEGFR2; on EGFR; in data set [2]) were 1 to 10 nM, 6000 to 60000 nM and no more than 1 nM, respectively. In data set [1], this compound returned a solubility at 8 h of 546 µg/mL (≈ 1080 µM). Besides, the fraction unbound at 2 h, 2 µM with melanin is greater than 0.05.
Turning to `CNC(=O)c1ccccc1Sc1ccc2c(/C=C/c3ccc(OC[C@H]4CCN(C)C4)cn3)n[nH]c2c1` [Compound I-37], the IC50 was no more than 1 nM at VEGFR2, 6000 to 60000 nM on EGFR, no more than 1 nM on VEGFR1 and 1 to 10 nM on VEGFR3. Moreover, the fraction unbound at 2 h, 2 µM with melanin was 0.01 to 0.05.
Consider `O=C(O)c1ccccc1Sc1ccn2c(/C=C/c3ccccn3)ncc2c1` [Compound I-28, 2-({3-[(E)-2-(pyridin-2-yl)ethenyl]imidazo[1,5-a]pyridin-7-yl}thio)benzoic acid], for which the IC50 was greater than 100 nM at VEGFR2, no more than 600 nM on EGFR, greater than 100 nM at VEGFR1 and greater than 100 nM on VEGFR3. Also, the fraction unbound at 2 h, 2 µM in the data set on melanin is greater than 0.05.
Take `CCN(CC)CCc1ccc(/C=C/c2n[nH]c3cc(Sc4ccccc4C(=O)NC4CC4)ccc23)nc1` [Compound I-77, N-cyclopropyl-2-({3-[(E)-2-{5-[2-(diethylamino)ethyl]pyridin-2-yl}ethenyl]-1H-indazol-6-yl}sulfanyl)benzamide]: the IC50 is no more than 1 nM at VEGFR2, 6000 to 60000 nM on EGFR and no more than 1 nM in data set [2]. In the data set on melanin, the fraction unbound at 2 h, 2 µM lay within 0.01 to 0.05. Also, the “State Description: pH” value in data set [3] is given as roughly 5.5. The “State Description: state” value in data set [3] is “gel”.
Consider `CNC(=O)c1ccccc1Sc1ccc2c(/C=C/c3ccc(OCCC4CCN(C)CC4)cn3)n[nH]c2c1` [Compound I-5], for which the IC50 at VEGFR2, at VEGFR1 and at VEGFR3 was no more than 1 nM each time. In data set [1], the solubility at 8 h was found to be 177 µg/mL (≈ 335 µM). This compound had a fraction unbound at 2 h, 2 µM with melanin of 0.01 to 0.05.
On to `CNC(=O)c1ccccc1Sc1ccc2c(NC(=O)NCCN3CCN(C)CC3)n[nH]c2c1` [Compound I-31], for which the IC50 at VEGFR2 was greater than 100 nM; at EGFR, greater than 60000 nM; on VEGFR1, greater than 100 nM; at VEGFR3, greater than 100 nM. Besides, the concentration in solution in data set [1] (solubility at 8 h) was 542 µg/mL (≈ 1160 µM). This compound also gave a fraction unbound at 2 h, 2 µM in the data set on melanin of 0.01 to 0.05.
Take `CNC(=O)c1ccccc1Sc1ccc2c(/C=C/c3ccc(OCC4CCN(C)C4)cn3)n[nH]c2c1` (centres unmarked) [Compound I-1]: the 50% inhibitory concentration (IC50) on VEGFR2 was no more than 1 nM; at EGFR, 6000 to 60000 nM; on VEGFR1 it was no more than 1 nM; on VEGFR3, no more than 1 nM. Further, in data set [1], the solubility at 8 h stood at 14.2 µg/mL (≈ 28.4 µM). This compound also showed a fraction unbound at 2 h, 2 µM in the data set with melanin greater than 0.05.
Regarding `CNC(=O)c1ccccc1Sc1ccn2c(/C=C/c3ccccn3)ncc2c1` [Compound I-27, N-methyl-2-({3-[(E)-2-(pyridin-2-yl)ethenyl]imidazo[1,5-a]pyridin-7-yl}thio)benzamide], the IC50 was greater than 100 nM at VEGFR2, 6000 to 60000 nM at EGFR, greater than 100 nM at VEGFR1 and greater than 100 nM on VEGFR3. In the data set on melanin, the fraction unbound at 2 h, 2 µM fell in the range of 0.01 to 0.05.
On to `CNC(=O)c1ccccc1Sc1ccc2c(/C=C/c3ccc(OCC4CCCN4C)cn3)n[nH]c2c1` (centres unmarked) [Compound I-2, N-methyl-2-((3-((E)-2-(5-((1-methylpyrrolidin-2-yl)methoxy)pyridin-2-yl)ethenyl)-1H-indazol-6-yl)thio)benzamide], for which the IC50 is no more than 1 nM at VEGFR2, 6000 to 60000 nM on EGFR, no more than 1 nM at VEGFR1 and 1 to 10 nM at VEGFR3. Also, in data set [1], the solubility at 8 h amounted to 28.8 µg/mL (≈ 57.6 µM). The compound also gave a fraction unbound at 2 h, 2 µM in the data set with melanin of 0.01 to 0.05.
As to `CNC(=O)c1ccccc1Sc1ccc2c(cnn2-c2ccc(OCCN3CCCC3)cn2)c1` [Compound I-29, N-methyl-2-[(1-{5-[2-(pyrrolidin-1-yl)ethoxy]pyridin-2-yl}-1H-indazol-5-yl)sulfanyl]benzamide], the IC50 on VEGFR2 was greater than 100 nM; at EGFR it was greater than 60000 nM; at VEGFR1, greater than 100 nM; on VEGFR3, greater than 100 nM.

By IC50 is commonly meant the concentration that inhibits the measured activity by half. One may read the solubility as the dissolved amount per volume that the medium holds. One may read the fraction unbound as the share of the substance not bound to proteins or other matrix.
